Where two headings read alike, the source gives them in different places.
Key:
[1] = Cytotoxicity by methylene blue assay; format: cell-based; conditions: human, Huh-luc/neo-ET cells
Protocol: The cytotoxicity of different herbal extract or components was measured by methylene blue assay. Huh-luc/neo-ET cells were seeded at a density of 7 × 10^3 cells per well in 96-well plate and treated with serial dilution of different herb extracts for 72 h. Cells were fixed and stained with 0.5% methylene blue in 50% ethanol, and then washed with tap water. After air-dry, cells were solubilized with 1% Sarkosyl and cell viability was determined from the extent absorption by spectrophotometric measurements at 595 nm (Spectra Max M5, Molecular Devices).

[2] = test system: HCV genotype 1b (Con1) replicon; experiment: Anti-HCV luciferase reporter assay on Huh-luc/neo-ET replicon cells; conditions: Hepatitis C virus, GETYPE1B, 72 h
[3] = test system: different subtypes of human and avian influenza viruses; conditions: cited from earlier work
[4] = test system: HCV JFH1-GFP chimeric virus; parameters: method as in PMID 22491814; conditions: read-out: EC50, replication of HCV JFH1-GFP chimeric virus; cited from earlier work
[5] = test system: J399EM virus; parameters: method as in PMID 22491814; conditions: cited from earlier work
[6] = test system: HCV entry; parameters: method as in PMID 22491814; conditions: cited from earlier work
[7] = read-out: Anti-HCV Activity (EC50, 72 h)
[8] = read-out: Anti-HCV Activity (EC50)
[9] = read-out: Anti-HCV Activity (EC50), in brackets as mass concentration

| SMILES | IC50 at 72 h [1] | EC50 [2, 7] | EC50 [2, 8] | EC50 [2, 9] | other results |
| --- | --- | --- | --- | --- | --- |
| O=C(O[C@@H]1Cc2c(O)cc(O)cc2O[C@@H]1c1ccc(O)c(O)c1)c1cc(O)c(O)c(O)c1 [ECG, epicatechin gallate] | > 100 µM | 69.8 ± 5.62 µM |  |  |  |
| COc1ccc2c(O[C@@H]3C[C@H]4C(=O)N[C@]5(C(=O)NS(=O)(=O)C6CC6)C[C@H]5/C=C\CCCCN(C)C(=O)[C@@H]4C3)cc(-c3nc(C(C)C)cs3)nc2c1C [Simeprevir, simeprevir] |  |  | 0.00127 ± 0.00025 µM | 42.5 ng/mL |  |
| CCC[C@H](NC(=O)[C@@H]1[C@H]2CCC[C@H]2CN1C(=O)[C@@H](NC(=O)[C@@H](NC(=O)c1cnccn1)C1CCCCC1)C(C)(C)C)C(=O)C(=O)NC1CC1 [Telaprevir, telaprevir] |  |  | 0.185 ± 0.035 µM | 126 ng/mL |  |
| COC(=O)N[C@H](C(=O)N1CCC[C@H]1c1nc(-c2ccc(-c3ccc(-c4c[nH]c([C@@H]5CCCN5C(=O)[C@@H](NC(=O)OC)C(C)C)n4)cc3)cc2)c[nH]1)C(C)C [Daclatasvir, daclatasvir] |  |  | 8e-06 ± 1e-06 µM | 0.00591 ng/mL |  |
| Oc1cc(O)c2c(c1)O[C@H](c1ccc(O)c(O)c1)[C@@H](O)C2 [(+)-Catechin] | > 100 µM | > 100 µM |  |  |  |
| COc1cc(C[C@H]2CO[C@H](c3ccc(O[C@@H]4O[C@H](CO)[C@@H](O)[C@H](O)[C@H]4O)c(OC)c3)[C@H]2CO)ccc1O[C@@H]1O[C@H](CO)[C@@H](O)[C@H](O)[C@H]1O [Clemastanin B] |  |  |  |  | inhibitory concentrations against influenza viruses [3]: below 1 mg/mL |
| O=C(O)c1cc(O)c(O)c(O)c1 [Gallic acid, gallic acid] | > 100 µM | > 100 µM |  |  |  |
| O=C(O[C@@H]1Cc2c(O)cc(O)cc2O[C@@H]1c1cc(O)c(O)c(O)c1)c1cc(O)c(O)c(O)c1 [EGCG, epigallocatechin gallate] | > 100 µM | 68.7 ± 4.51 µM |  |  | EC50 [4]: 17.9 µM; EC50 [5]: 80 µM; EC50 [6]: 25 µM |
| Oc1cc(O)c2c(c1)O[C@H](c1cc(O)c(O)c(O)c1)[C@H](O)C2 [EGC, epigallocatechin] | > 100 µM | > 100 µM |  |  |  |
| CC(C)OC(=O)[C@H](C)N[P@](=O)(OC[C@H]1O[C@@H](n2ccc(=O)[nH]c2=O)[C@](C)(F)[C@@H]1O)Oc1ccccc1 [Sofosbuvir, sofosbuvir] |  |  | 0.0263 ± 0.0055 µM | 13.9 ng/mL |  |
| Oc1cc(O)c2c(c1)O[C@H](c1ccc(O)c(O)c1)[C@H](O)C2 [EC, epicatechin] | > 100 µM | > 100 µM |  |  |  |

From article PMC6274077, “In Vitro Study on Anti-Hepatitis C Virus Activity of Spatholobus suberectus Dunn” (Molecules, 2016)
